From patent US8168596B2, “Use of cycloartane compounds for treating arthritis” (NuLiv Holding Inc., priority 2008, dated 2012)

Tests used:
MMP-13 [1] = assay: Western blot of MMP-13 in PMA- or IL-1β-pre-treated SW1353 cells (Example 6); type: cell-based, human; conditions: 0.1 μM, 48 h
Experimental: (§1) The cells were then plated on 6-cm dishes at a density of 1×10^6 cells/dish for 24 hours prior to any treatment. At the beginning of the experiment, the cells were pre-treated with 100 ng/mL PMA or 10 ng/mL IL-1β for 24 hours. The cells were then treated 0.1 μM Dexamethasone with, various astragaloside compounds (0.1 μM) or extracts of Astragalus membranaceous (1 μg/mL) at indicated dosages for another 48 hours. For control sample, 0.1% DMSO was used as a negative control for these experiments. The conditioned culture mediums were then centrifuged, 2-fold concentrated and collected for assay of collagens or MMPs secreted into the culture medium.
Western blotting analysis was carried out on both cultured medium and cell lysates, as follows. The cells were washed and lysed in 0.2 mL of lysis buffer (1% NP-40, 50 mM Tris-HCl, pH 7.4, 180 mM NaCl, 1 mM EDTA, 1 mM PMSF, 1 mM NaF, 10 mM Na3VO4) for 30 min at 4° C. After centrifuging at 17500 g for 15 min, the supernatants of cell lysate were also collected. Protein concentration of the samples were measured using the bicinchoninic acid (BCA) protein assay kit according to the manufacturer's protocol (Pierce, Rockford, Ill., USA). Equal amount of protein samples of concentrated conditioned medium (100 μg) or cell lysate supernatants (50 μg) were mixed with an appropriate volume of 4×SDS sampling buffer and separated by 8% SDS-PAGE gel. The protein bands separated in the SDS-PAGE gel were blotted onto a polyvinylidene fluoride (PVDF) membrane. The blotted PVDF membrane was washed twice and blocked in freshly prepared Tris-buffered saline (TBS) containing 0.1% Tween-20 and 7% skim milk (TBST) for 2 hours at room temperature. […] Horseradish peroxidase-conjugated anti-goat antibody was used as secondary antibody. Signals were visualized by an enhanced chemiluminescence kit (Clonetech, Palo Alto, Calif., USA) followed by exposure to X-ray films.

MMP-1 [2] = assay: Western blot of MMP-1 in PMA- or IL-1β-pre-treated SW1353 cells (Example 6); type: cell-based, human; conditions: 48 h
Experimental: as §1
Western blotting analysis was carried out on both cultured medium and cell lysates, as follows. The cells were washed and lysed in 0.2 mL of lysis buffer (1% NP-40, 50 mM Tris-HCl, pH 7.4, 180 mM NaCl, 1 mM EDTA, 1 mM PMSF, 1 mM NaF, 10 mM Na3VO4) for 30 min at 4° C. After centrifuging at 17500 g for 15 min, the supernatants of cell lysate were also collected. Protein concentration of the samples were measured using the bicinchoninic acid (BCA) protein assay kit according to the manufacturer's protocol (Pierce, Rockford, Ill., USA). Equal amount of protein samples of concentrated conditioned medium (100 μg) or cell lysate supernatants (50 μg) were mixed with an appropriate volume of 4×SDS sampling buffer and separated by 8% SDS-PAGE gel. The protein bands separated in the SDS-PAGE gel were blotted onto a polyvinylidene fluoride (PVDF) membrane. The blotted PVDF membrane was washed twice and blocked in freshly prepared Tris-buffered saline (TBS) containing 0.1% Tween-20 and 7% skim milk (TBST) for 2 hours at room temperature. The PVDF membrane was then incubated with either antibodies against collagen I and III or the housekeeping protein α-tubulin (Santa Cruz Biotechnology, Santa Cruz, Calif.) for 18 hours at 4° C. Horseradish peroxidase-conjugated anti-goat antibody was used as secondary antibody. Signals were visualized by an enhanced chemiluminescence kit (Clonetech, Palo Alto, Calif., USA) followed by exposure to X-ray films.

MMP-9 = assay: Zymography of MMP-9 from pre-treated SW1353 cells; type: cell-based, human; conditions: 24 h
Experimental: (§2) At the beginning of the experiment, the cells were pre-treated with 100 ng/mL PMA or 10 ng/mL IL-1β for 24 hours. The cells were then treated with 0.1 μM Dexamethasone, various astragaloside compounds (0.1 μM) or extracts of Astragalus membranaceous (1 μg/mL) at indicated dosages for another 24 hours. For control sample, 0.1% DMSO was used as a negative control for these experiments. The conditioned culture mediums were then centrifuged, 2-fold concentrated and collected for assay of collagens or MMPs secreted into the culture medium.
(§3) The proteolytic activities of MMPs from SW1353 cells were measured essentially as described previously (Circ Res, 1999; 85:906-911). The cells were lysed in lysis buffer (1% Triton X-100, 50 mM Tris-Cl, pH 7.4, 180 mM NaCl, 1 mM EDTA). The samples were measured for their protein concentration using the bicinchoninic acid (BCA) protein assay kit as described. Samples of concentrated conditioned medium and cell lysates were mixed with non-reducing electrophoresis loading buffer and subjected to electrophoresis under non-reducing conditions. The electrophoresis was carried out on a 10% SDS-PAGE co-polymerized with 2 mg/mL gelatin or casein (Sigma, St. Louis, Mo. USA). For zymographic analysis of pro-MMP-2 and activated MMP-2, the total 20 μg of culture medium were used for electrophoresis. Following electrophoresis, renaturation of the proteins was achieved by incubating the gels twice in 25 g/L Triton X-100 at room temperature for 10 min. Subsequently the gels were incubated in 50 mM Tris-HCl, pH 7.5 containing 0.2 M NaCl, 0.02% Brij35 and 10 mM CaCl2 at 37° C. for 18 hours. After the gels were stained with Coomassie Brilliant Blue R-250 and destained, zones of proteolytic activities became visible as transparent bands in the stained gel. In order to obtain higher sensitivity, the gels were further destained in a solution of 1% Triton X-100 (1 to 2 hours). This procedure increased the signal-to-noise ratio, allowing the visualization of faint gelatinase bands at 92 kDa, 125 kDa and greater than 200 kDa. Zymograms were read using a Molecular Dynamics (Sunnyvale, Calif., USA) computing laser densitometer with Image Quant software.

MMP-2 = assay: Zymography of MMP-2 from pre-treated SW1353 cells; type: cell-based, human; conditions: 24 h
Experimental: as §2, §3

MMP-1 [3] = assay: Zymography of MMP-1 from pre-treated SW1353 cells; type: cell-based, human; conditions: 0.1 μM, 24 h
Experimental: as §2, §3

Type II Collagen = assay: Western blot of Type II Collagen in pre-treated human chondrocytes (HCHs); type: cell-based; conditions: 48 h
MMP-13 [4] = assay: Western blot of MMP-13 in pre-treated human chondrocytes (HCHs); type: cell-based; conditions: 48 h
MMP-1 [5] = assay: Western blot of MMP-1 in pre-treated human chondrocytes (HCHs); type: cell-based; conditions: 48 h
HCH cells = assay: Proline uptake assay; type: cell-based, human; conditions: astragalosides 0.1 μM, 24 h, Ctrl 1.00
Experimental: The proline uptake assay was carried out as described below, generally in accordance with the method disclosed in Biochim Biophys Acta. 1104:283-292, 1992, the contents of which are incorporated by reference. Briefly, HCH cells were seeded into a 24-well plate at a density of 3×10^4 cells per well and cultured for 24 hours. The cells were then treated in the absence (solvent control) or presence of the astragalosides (0.1 μM) or Astragalus membranaceous extracts (1.0 μg/mL) for another 24 hours. The treated cells were then washed once with PBS and incubated in amino acid free medium (AAFM) for another 30 min. The treated cells were then replaced with fresh AAFM containing 50 μg/mL of ascorbate and total of 0.5 mM of L-proline containing 1 μCi [^3H] Proline (American Radiolabelled Chemicals Inc, ARC, St. Louis, Mo., USA). At designated time intervals, the cells were washed with AAFM containing cold proline and then lysed in 200 μL of 2% SDS. Cell lysates were centrifuged at 15000 g for 15 min. Intracellular proline uptaken by the cells was determined by transferring 10 μL of the cell lysate to filter-bottomed UniFilter plates (Perkim-Elmer) and counting. The samples were measured for their protein concentrations using the BCA protein assay kit as described above. The amount of proline accumulated in the cells was calculated and normalized to protein concentration. And cellular uptake rate was expressed as nmole of L-proline per minute per […] of cell protein (nmole/min/μg).

[6] = IL-1β-pre-treated SW1353 cell extract
[7] = IL-1β-pre-treated SW1353 culture medium
[8] = IL-1β-pre-treated SW1353 cell extract, compounds 0.1 μM
[9] = PMA-pre-treated SW1353 cell extract, 0.1 μM
[10] = IL-1β-pre-treated SW1353, compounds 0.1 μM
[11] = IL-1β-pre-treated HCH culture medium, compounds 0.1 μM
[12] = IL-1β-pre-treated SW1353 culture medium, 0.1 μM
[13] = PMA-pre-treated SW1353 culture medium
[14] = PMA-pre-treated HCH culture medium, 0.1 μM
[15] = PMA-pre-treated SW1353 culture medium, 0.1 μM

| Compound | MMP-13, Western blot, relative to Ctrl 1.00 (MMP-13 [1]; [6]) | MMP-13, Western blot, relative to Ctrl 1.00 (MMP-13 [1]; [7]) | MMP-1, Western blot, relative to Ctrl 1.00 (MMP-1 [2]; [8]) | MMP-1, Western blot, relative to Ctrl 1.00 (MMP-1 [2]; [9]) | MMP-9, Zymography, relative to Ctrl 1.00 (MMP-9; [10]) | MMP-2, Zymography, relative to Ctrl 1.00 (MMP-2; [10]) | MMP-1, Zymography, relative to Ctrl 1.00 (MMP-1 [3]; IL-1β-pre-treated SW1353) | Type II Collagen, Western blot, relative to Ctrl 1.00 (Type II Collagen; [11]) | MMP-1, Western blot, relative to Ctrl 1.00 (MMP-1 [2]; [12]) | MMP-9, Zymography, relative to Ctrl 1.00 (MMP-9; PMA-pre-treated SW1353, 0.1 μM) | MMP-13, Western blot, relative to Ctrl 1.00 (MMP-13 [4]; [11]) | MMP-2, Zymography, relative to Ctrl 1.00 (MMP-2; PMA-pre-treated SW1353, 0.1 μM) | MMP-1, Zymography, relative to Ctrl 1.00 (MMP-1 [3]; PMA-pre-treated SW1353) | MMP-13, Western blot, relative to Ctrl 1.00 (MMP-13 [1]; [13]) | Type II Collagen, Western blot, relative to Ctrl 1.00 (Type II Collagen; [14]) | MMP-1, Western blot, relative to Ctrl 1.00 (MMP-1 [2]; [15]) | MMP-13, Western blot, relative to Ctrl 1.00 (MMP-13 [4]; [14]) | MMP-1, Western blot, relative to Ctrl 1.00 (MMP-1 [5]; [11]) | MMP-1, Western blot, relative to Ctrl 1.00 (MMP-1 [5]; [14]) | other results |
| --- | --- | --- | --- | --- | --- | --- | --- | --- | --- | --- | --- | --- | --- | --- | --- | --- | --- | --- | --- | --- |
| CC(=O)O[C@H]1[C@H](O[C@H]2CC[C@]34C[C@]35CC[C@]3(C)[C@@H]([C@@]6(C)CC[C@@H](C(C)(C)O)O6)[C@@H](O)C[C@@]3(C)[C@@H]5C[C@H](O[C@@H]3O[C@H](CO)[C@@H](O)[C@H](O)[C@H]3O)[C@H]4C2(C)C)OC[C@@H](O)[C@@H]1O [AS2, Astragaloside II] | 0.49 | 0.45 | 0.86 | 0.71 | 0.79 | 0.79 | 0.77 |  |  |  |  |  |  |  |  |  |  |  |  |  |
| CC(C)(O)[C@@H]1CC[C@](C)([C@H]2[C@@H](O)C[C@@]3(C)[C@@H]4C[C@H](O)[C@H]5C(C)(C)[C@@H](O[C@@H]6OC[C@@H](O)[C@H](O)[C@H]6O[C@@H]6O[C@H](CO)[C@@H](O)[C@H](O)[C@H]6O)CC[C@@]56C[C@@]46CC[C@]23C)O1 [AS3, Astragaloside III] | 0.86 |  | 0.39 |  |  |  |  | 1.03 | 0.09 | 0.87 | 0.75 | 0.90 | 0.89 |  |  |  |  |  |  |  |
| CC(C)(O)[C@@H]1CC[C@](C)([C@H]2[C@@H](O)C[C@@]3(C)[C@@H]4C[C@H](O[C@@H]5O[C@H](CO)[C@@H](O)[C@H](O)[C@H]5O)[C@H]5C(C)(C)[C@@H](O[C@@H]6OC[C@@H](O)[C@H](O)[C@H]6O[C@@H]6O[C@H](CO)[C@@H](O)[C@H](O)[C@H]6O)CC[C@@]56C[C@@]46CC[C@]23C)O1 [AS6, Astragaloside VI] |  |  | 0.63 |  |  |  |  | 1.34 |  |  |  |  |  | 0.93 | 1.74 | 0.40 | 0.26 | 0.97 | 0.51 | MMP-13, Western blot, relative to Ctrl 1.00 (MMP-13 [4]; PMA-pre-treated HCH cell extract, 0.1 μM): 0.54; proline uptake, Relative fold (HCH cells): 1.69 fold |
| C[C@@H]1C[C@H]2[C@@H]3CCC4=CC(=O)C=C[C@]4(C)[C@@]3(F)[C@@H](O)C[C@]2(C)[C@@]1(O)C(=O)CO [Dex, Dexamethasone, reference compound] | 0.64 | 0.29 | 0.26 | 0.38 | 0.58 | 0.42 | 0.80 | 1.20 | 0.38 | 0.92 | 0.74 | 0.99 | 0.87 | 0.46 | 1.20 | 0.60 | 0.74 | 0.28 | 0.28 | MMP-13, Western blot, relative to Ctrl 1.00 (MMP-13 [1]; PMA-pre-treated SW1353 cell extract): 0.48 |
| Astragaloside I [AS1] | 0.37 |  | 0.66 | 0.86 | 0.79 | 0.76 | 0.86 |  |  | 1.23 |  | 0.87 | 0.85 | 1.15 |  | 0.48 |  |  |  |  |
